The results in this text go back to patent publication US8791107B2, “N-substituted oxazinopteridines and oxazinopteridinones” (Takeda Pharmaceutical Company Limited, priority 2011, dated 2014).

T1 sequence (O00329 whole entry): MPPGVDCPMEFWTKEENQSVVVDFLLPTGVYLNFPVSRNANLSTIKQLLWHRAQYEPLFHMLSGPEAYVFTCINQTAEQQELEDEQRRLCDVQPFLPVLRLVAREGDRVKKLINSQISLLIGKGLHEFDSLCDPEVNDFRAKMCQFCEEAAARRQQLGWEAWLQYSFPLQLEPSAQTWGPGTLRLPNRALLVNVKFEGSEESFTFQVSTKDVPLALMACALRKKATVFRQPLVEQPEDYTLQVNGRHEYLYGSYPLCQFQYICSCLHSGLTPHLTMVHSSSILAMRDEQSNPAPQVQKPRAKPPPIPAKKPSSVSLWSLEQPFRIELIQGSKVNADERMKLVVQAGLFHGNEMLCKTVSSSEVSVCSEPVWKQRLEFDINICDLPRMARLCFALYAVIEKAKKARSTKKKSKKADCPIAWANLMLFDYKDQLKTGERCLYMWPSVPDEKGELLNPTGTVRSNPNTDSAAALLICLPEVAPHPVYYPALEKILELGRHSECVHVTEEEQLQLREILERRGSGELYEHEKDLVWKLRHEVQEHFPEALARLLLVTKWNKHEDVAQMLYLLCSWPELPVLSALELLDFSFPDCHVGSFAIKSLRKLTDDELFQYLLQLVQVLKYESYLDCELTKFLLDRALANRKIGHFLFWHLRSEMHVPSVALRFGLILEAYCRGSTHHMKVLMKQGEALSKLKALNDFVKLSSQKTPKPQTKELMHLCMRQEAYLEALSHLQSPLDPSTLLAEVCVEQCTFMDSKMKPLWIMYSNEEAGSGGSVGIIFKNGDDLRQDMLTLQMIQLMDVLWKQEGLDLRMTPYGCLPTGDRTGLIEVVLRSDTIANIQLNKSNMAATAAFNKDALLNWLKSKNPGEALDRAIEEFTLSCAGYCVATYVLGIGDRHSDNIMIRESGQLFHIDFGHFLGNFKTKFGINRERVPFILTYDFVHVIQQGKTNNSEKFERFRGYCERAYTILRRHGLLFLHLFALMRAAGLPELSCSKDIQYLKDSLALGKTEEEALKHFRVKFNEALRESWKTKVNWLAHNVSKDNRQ
T1 sequence (P27986 whole entry partner): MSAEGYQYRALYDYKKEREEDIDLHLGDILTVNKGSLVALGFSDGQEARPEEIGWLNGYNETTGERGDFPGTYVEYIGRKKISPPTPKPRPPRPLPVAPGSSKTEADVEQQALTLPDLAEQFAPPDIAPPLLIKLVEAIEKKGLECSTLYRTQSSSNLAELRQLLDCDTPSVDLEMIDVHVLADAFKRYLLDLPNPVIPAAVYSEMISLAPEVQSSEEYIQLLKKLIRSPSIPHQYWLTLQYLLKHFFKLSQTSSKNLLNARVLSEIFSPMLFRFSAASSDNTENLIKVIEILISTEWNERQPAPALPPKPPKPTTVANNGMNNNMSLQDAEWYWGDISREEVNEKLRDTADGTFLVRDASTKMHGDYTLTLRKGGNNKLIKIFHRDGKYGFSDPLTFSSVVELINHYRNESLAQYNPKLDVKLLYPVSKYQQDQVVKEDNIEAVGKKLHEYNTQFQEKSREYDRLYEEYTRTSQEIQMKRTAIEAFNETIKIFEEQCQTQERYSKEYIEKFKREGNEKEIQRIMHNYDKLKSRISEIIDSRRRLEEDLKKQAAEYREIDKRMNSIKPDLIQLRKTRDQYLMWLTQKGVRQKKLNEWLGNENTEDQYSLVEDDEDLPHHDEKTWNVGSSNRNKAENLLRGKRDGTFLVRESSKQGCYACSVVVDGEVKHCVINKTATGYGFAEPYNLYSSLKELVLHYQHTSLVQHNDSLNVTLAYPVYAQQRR

This assay addresses T1, PI3Kδ (Homo sapiens, UniProt O00329).
T1 construct: The protein is full length and co-expressed with untagged PIK3R1; GST; purchased Invitrogen PV5274
Nature of the assay: PI3Kδ inhibition, modified PIK3CD Adapta TR-FRET assay. As to conditions: recombinant GST-tagged full length PIK3CD co-expressed with PIK3R1 (p85α); 2 μM ATP, 50 μM PIP2; read-out: PI3Kδ Inhibition (pIC50) (converted). Format: biochemical. Put shortly:
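Full-length GST-PIK3CD co-expressed with p85α was run in 50 mM HEPES pH 7.5, 3 mM MgCl2, 1 mM EGTA, 100 mM NaCl, 0.03% CHAPS, 2 mM DTT, 1% DMSO, with 12-point compound titrations. Reactions at room temperature were started with solution containing 2 μM ATP and 50 μM PIP2. ADP was detected by Adapta TR-FRET (620 nm-ratioed).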
Background: Time-resolved FRET reads energy transfer from a long-lived donor to a nearby acceptor.
For the compound `CNC(=O)Nc1ccc(-c2ncc3c(n2)N2CCOCC2CN3Cc2ccc(S(C)(=O)=O)cc2Cl)cc1` (stereo not drawn) [Example 6, 1-(4-(5-(2-chloro-4-(methylsulfonyl)benzyl)-5,6,6a,7,9,10-hexahydro-[1,4]oxazino[3,4-h]pteridin-2-yl)phenyl)-3-methylurea], the IC50 is 10 nM.
As to `c1cc(-c2ncc3c(n2)N2CCOC[C@H]2CN3Cc2cnco2)c2cc[nH]c2c1` [Example 185, (R)-2-(1H-indol-4-yl)-5-(oxazol-5-ylmethyl)-5,6,6a,7,9,10-hexahydro-[1,4]oxazino[3,4-h]pteridine], the IC50 was 10 nM.
Take `CS(=O)(=O)c1ccc(CN2C(=O)C3COCCN3c3nc(-c4ccc5[nH]ccc5c4)ncc32)cc1` (stereo not drawn) [Example 127, 2-(1H-indol-5-yl)-5-(4-(methylsulfonyl)benzyl)-6a,7,9,10-tetrahydro-[1,4]oxazino[3,4-h]pteridin-6(5H)-one]: the IC50 was 126 nM.
Next, `O=C(CN1C[C@@H]2COCCN2c2nc(-c3cccc4[nH]ccc34)ncc21)NCC1CC1` [Example 70, (R)-2-(2-(1H-indol-4-yl)-6a,7,9,10-tetrahydro-[1,4]oxazino[3,4-h]pteridin-5(6H)-yl)-N-(cyclopropylmethyl)acetamide]: 200 nM.
In the case of `COC(=O)c1cc(N2C[C@@H]3COCCN3c3nc(-c4cccc5[nH]ccc45)ncc32)cnc1OC` [Example 202, (R)-methyl 5-(2-(1H-indol-4-yl)-6a,7,9,10-tetrahydro-[1,4]oxazino[3,4-h]pteridin-5(6H)-yl)-2-methoxynicotinate], the IC50 was 2.51 nM.
Next, `CS(=O)(=O)c1ccc(CN2C(=O)C3COCCN3c3nc(-c4c[nH]c5ncccc45)ncc32)cc1` (stereo not drawn) [Example 137, 5-(4-(methylsulfonyl)benzyl)-2-(1H-pyrrolo[2,3-b]pyridin-3-yl)-6a,7,9,10-tetrahydro-[1,4]oxazino[3,4-h]pteridin-6(5H)-one]: 501 nM; `CS(=O)(=O)c1ccc(CN2CC3COCCN3c3nc(-c4cccc5[nH]c(C(F)(F)F)cc45)ncc32)cc1` (stereo not drawn) [Example 21, 5-(4-(methylsulfonyl)benzyl)-2-(2-(trifluoromethyl)-1H-indol-4-yl)-5,6,6a,7,9,10-hexahydro-[1,4]oxazino[3,4-h]pteridine]: 1260 nM; `CN(CC1CCOCC1)C(=O)CN1C[C@@H]2COCCN2c2nc(-c3cccc4[nH]ccc34)ncc21` [Example 212, (R)-2-(2-(1H-indol-4-yl)-6a,7,9,10-tetrahydro-[1,4]oxazino[3,4-h]pteridin-5(6H)-yl)-N-methyl-N-((tetrahydro-2H-pyran-4-yl)methyl)acetamide]: 39.8 nM.
As for `CNC(=O)Nc1ccc(-c2ncc3c(n2)N2CCOCC2C(=O)N3C2CCc3ccc(Cl)cc32)cc1` (stereo not drawn) [Example 147, 1-(4-(5-(6-chloro-2,3-dihydro-1H-inden-1-yl)-6-oxo-5,6,6a,7,9,10-hexahydro-[1,4]oxazino[3,4-h]pteridin-2-yl)phenyl)-3-methylurea], the figure is 20 nM; as for `NC(=O)c1cccc(CN2CC3COCCN3c3nc(-c4cccc5[nH]ccc45)ncc32)c1` (stereo not drawn) [Example 76, 3-((2-(1H-indol-4-yl)-6a,7,9,10-tetrahydro-[1,4]oxazino[3,4-h]pteridin-5(6H)-yl)methyl)benzamide], 31.6 nM.
Next, `O=C(Cc1ccccc1)N1CC2COCCN2c2nc(-c3cccc4[nH]ccc34)ncc21` (stereo not drawn) [Example 48, 1-(2-(1H-indol-4-yl)-6a,7,9,10-tetrahydro-[1,4]oxazino[3,4-h]pteridin-5(6H)-yl)-2-phenylethanone]: 251 nM; `CS(=O)(=O)c1ccc(CN2C(=O)C3COCCN3c3nc(-c4ccc5cc[nH]c5c4)ncc32)cc1` (stereo not drawn) [Example 100, 2-(1H-indol-6-yl)-5-(4-(methylsulfonyl)benzyl)-6a,7,9,10-tetrahydro-[1,4]oxazino[3,4-h]pteridin-6(5H)-one]: 3980 nM; `CC(C)Cc1nnc(C(C)N2C[C@@H]3COCCN3c3nc(-c4cccc(CO)c4)ncc32)o1` (stereo partly drawn) [Example 176]: 1.58 nM.
Take `Cc1ccc(CO)c(CN2C[C@@H]3COCCN3c3nc(-c4cccc5[nH]ccc45)ncc32)c1` [Example 166, (R)-(2-((2-(1H-indol-4-yl)-6a,7,9,10-tetrahydro-[1,4]oxazino[3,4-h]pteridin-5(6H)-yl)methyl)-4-methylphenyl)methanol]: the IC50 was 63.1 nM.
As for `Cn1nccc1-c1ncc2c(n1)N1CCOC[C@H]1CN2CC(=O)NCC1CCOCC1` [Example 225, (R)-2-(2-(1-methyl-1H-pyrazol-5-yl)-6a,7,9,10-tetrahydro-[1,4]oxazino[3,4-h]pteridin-5(6H)-yl)-N-((tetrahydro-2H-pyran-4-yl)methyl)acetamide], the figure is 1580 nM.
Next, `COCc1cccc(-c2ncc3c(n2)N2CCOC[C@H]2CN3CC(=O)NCC2CCOCC2)c1` [Example 216, (R)-2-(2-(3-(methoxymethyl)phenyl)-6a,7,9,10-tetrahydro-[1,4]oxazino[3,4-h]pteridin-5(6H)-yl)-N-((tetrahydro-2H-pyran-4-yl)methyl)acetamide]: 1000 nM; `CC(=O)Nc1cccc(-c2ncc3c(n2)N2CCOCC2C(=O)N3Cc2ccc(S(C)(=O)=O)cc2)c1` (stereo not drawn) [Example 101, N-(3-(5-(4-(methylsulfonyl)benzyl)-6-oxo-5,6,6a,7,9,10-hexahydro-[1,4]oxazino[3,4-h]pteridin-2-yl)phenyl)acetamide]: 316 nM; `CS(=O)(=O)c1ccc(CN2C(=O)C3COCCN3c3nc(-c4cccc(N)c4)ncc32)cc1` (stereo not drawn) [Example 103, 2-(3-aminophenyl)-5-(4-(methylsulfonyl)benzyl)-6a,7,9,10-tetrahydro-[1,4]oxazino[3,4-h]pteridin-6(5H)-one]: 126 nM.
Next, `CNC(=O)c1cccc(-c2ncc3c(n2)N2CCOCC2C(=O)N3Cc2ccc(S(C)(=O)=O)cc2)c1` (stereo not drawn) [Example 122, N-methyl-3-(5-(4-(methylsulfonyl)benzyl)-6-oxo-5,6,6a,7,9,10-hexahydro-[1,4]oxazino[3,4-h]pteridin-2-yl)benzamide]: 1000 nM; `CNC(=O)Nc1ccc(-c2ncc3c(n2)N2CCOCC2C(=O)N3Cc2ccc(Cl)cc2)cc1` (stereo not drawn) [Example 89, 1-(4-(5-(4-chlorobenzyl)-6-oxo-5,6,6a,7,9,10-hexahydro-[1,4]oxazino[3,4-h]pteridin-2-yl)phenyl)-3-methylurea]: 63.1 nM; `CC(C)Cc1nnc(C(C)N2C[C@@H]3COCCN3c3nc(-c4cccc5[nH]ccc45)ncc32)o1` (stereo partly drawn) [Example 175, (6aR)-2-(1H-indol-4-yl)-5-(1-(5-isobutyl-1,3,4-oxadiazol-2-yl)ethyl)-5,6,6a,7,9,10-hexahydro-[1,4]oxazino[3,4-h]pteridine]: 1.58 nM.
Regarding `CNS(=O)(=O)c1cccc(-c2ncc3c(n2)N2CCOCC2C(=O)N3Cc2ccc(S(C)(=O)=O)cc2)c1` (stereo not drawn) [Example 111, N-methyl-3-(5-(4-(methylsulfonyl)benzyl)-6-oxo-5,6,6a,7,9,10-hexahydro-[1,4]oxazino[3,4-h]pteridin-2-yl)benzenesulfonamide], the IC50 was 1580 nM.
Next, `CS(=O)(=O)c1ccc(CN2C(=O)C3COCCN3c3nc(-c4cccc(-n5cccn5)c4)ncc32)cc1` (stereo not drawn) [Example 128, 2-(3-(1H-pyrazol-1-yl)phenyl)-5-(4-(methylsulfonyl)benzyl)-6a,7,9,10-tetrahydro-[1,4]oxazino[3,4-h]pteridin-6(5H)-one]: 501 nM; `CNC(=O)Nc1ccc(-c2ncc3c(n2)N2CCOCC2C(=O)N3C2CCc3ccc(OC)cc32)cc1` (stereo not drawn) [Example 148, 1-(4-(5-(6-methoxy-2,3-dihydro-1H-inden-1-yl)-6-oxo-5,6,6a,7,9,10-hexahydro-[1,4]oxazino[3,4-h]pteridin-2-yl)phenyl)-3-methylurea]: 3.98 nM; `O=C1Nc2cnc(-c3cccc4[nH]ccc34)nc2N2CCOC[C@@H]12` (single isomer, unassigned) [Example 150]: 5.01 nM.
Next, `CNC(=O)Nc1ccc(-c2ncc3c(n2)N2CCOCC2C(=O)N3Cc2ccc(C(=O)OC)cc2)cc1` (stereo not drawn) [Example 88, methyl 4-((2-(4-(3-methylureido)phenyl)-6-oxo-6a,7,9,10-tetrahydro-[1,4]oxazino[3,4-h]pteridin-5(6H)-yl)methyl)benzoate]: 6.31 nM.
As for `Cn1cc(NC(=O)CN2C[C@@H]3COCCN3c3nc(-c4cccc5[nH]ccc45)ncc32)cn1` [Example 206, (R)-2-(2-(1H-indol-4-yl)-6a,7,9,10-tetrahydro-[1,4]oxazino[3,4-h]pteridin-5(6H)-yl)-N-(1-methyl-1H-pyrazol-4-yl)acetamide], the figure is 50.1 nM; as for `CS(=O)(=O)c1ccc(CN2C(=O)C3COCCN3c3nc(-c4cccc(N5CCCS5(=O)=O)c4)ncc32)cc1` (stereo not drawn) [Example 132, 2-(3-(1,1-dioxidoisothiazolidin-2-yl)phenyl)-5-(4-(methylsulfonyl)benzyl)-6a,7,9,10-tetrahydro-[1,4]oxazino[3,4-h]pteridin-6(5H)-one], 6310 nM.
Take `CCc1nnc(CN2C[C@@H]3COCCN3c3nc(-n4ccc5cnccc54)ncc32)o1` [Example 180, (R)-5-((5-ethyl-1,3,4-oxadiazol-2-yl)methyl)-2-(1H-pyrrolo[3,2-c]pyridin-1-yl)-5,6,6a,7,9,10-hexahydro-[1,4]oxazino[3,4-h]pteridine]: the IC50 is 398 nM.
Next, `CC(C)(O)CCN1C[C@@H]2COCCN2c2nc(-c3cncc4[nH]ccc34)ncc21` [Example 170, (R)-4-(2-(1H-pyrrolo[2,3-c]pyridin-4-yl)-6a,7,9,10-tetrahydro-[1,4]oxazino[3,4-h]pteridin-5(6H)-yl)-2-methylbutan-2-ol]: 6.31 nM.
